Key:
[1] = test system: human platelet suspension (platelet aggregation caused by collagen); assay: Platelet aggregation reaction test, collagen-induced; format: cell-based; settings: read-out: Collagen IC 50
Procedure: (§1) Blood samples were collected from healthy donors, and acid-citrate-dextrose (ACD) solution was used as an anticoagulant. The blood samples were centrifuged to obtain platelets, and residual plasma was removed by washing to prepare platelet suspension.
(§2) In the experimental method, a platelet aggregometer (Chrono-Log Co., Havertown, PA, USA) was used for tests. The compound to be tested was added to the platelet suspension and reacted for 3 minutes at 37° C. with stirring (1200 rpm). Then, platelet stimulator U46619 or collagen was added to initiate platelet aggregation, and the test time was 5 minutes. The principle of the platelet aggregation test was: when platelets were stimulated to induce aggregation reaction, the light transmission of the platelet suspension would increase; by calculating changes in light transmission of the platelet suspension before and after being stimulated, the percentage of platelet aggregation could be obtained.

[2] = test system: FeCl3-induced carotid artery thrombosis; assay: Ferric chloride-induced carotid artery thrombosis in mice; format: in vivo, BALB/c mice; settings: oral gavage
Procedure: Mice were orally administered by gavage with sofalcone (SFC, once daily for 4 days), derivative 17, or aspirin (ASA) (single administration only). The mice are then treated with ferric chloride solution to induce carotid artery thrombosis, and an ultrasound imaging system was used to monitor the time required for the thrombus to block the carotid artery (occlusion time). Data are presented as mean±standard […] error of the mean (n≥6). Compared with the control group, *P<0.05, ***P<0.001. In this experiment, a ferric chloride-induced arterial injury was used to evaluate the antithrombotic effect of the to-be-tested compound. The to-be-tested compound was orally administered by gavage to BALB/c mice aged approximately 6-8 weeks. Then, the mice were anesthetized with isoflurane, the right carotid artery was exposed through surgery, and filter paper (2×4 mm^2) containing 8.5% ferric chloride was attached to the right carotid artery for 3 minutes. After removing the filter paper, remaining ferric chloride was wiped off with cotton balls soaked with physiological saline, and an ultrasonic imaging system (VEVO 2100 system, VisualSonics) equipped with a Doppler flow probe (MS400, 18-38 MHz) was used to monitor the blood flow of the right carotid artery. The occlusion time was determined when the blood flow completely stopped for at least 1 minute. If the occlusion time was longer than 30 minutes, it was considered the end point of the experiment.

[3] = test system: human platelet suspension (platelet aggregation caused by TxA2 agonist U46619); assay: Platelet aggregation reaction test, U46619-induced; format: cell-based
Procedure: as §1, §2

[4] = test system: normal hemostatic function (tail bleeding); assay: Mouse bleeding test (tail bleeding time); format: in vivo, BALB/c mice
Procedure: Mice were orally administered by gavage with sofalcone (SFC, once daily for 4 days), derivative 17, or aspirin (ASA) (single administration only). Then the mouse's tail was transected and the tail bleeding time was recorded. Data are presented as mean±standard error of the mean (n≥6). Compared with the control group, ***P<0.001. n.s.: No significant difference. In the present invention, the effect of the to-be-tested compound on normal hemostasis was evaluated by docking off the tail ends of the mice to cause bleeding. The to-be-tested compound was orally administered to BALB/c mice aged approximately 6-8 weeks by gavage. Then, the mice were anesthetized with isoflurane, and 2 mm of the distal end of their tails were excised. The tails of the mice were immersed in physiological saline at 37° C., and the bleeding time was observed. The determination of bleeding time was: the time required from the time the mouse tail was cut off until the bleeding completely stopped.

[5] = biological target: T1, human recombinant COX1 (Homo sapiens, UniProt P23219); assay: COX1 enzyme activity assay; format: biochemical
T1 construct: purchased Cayman Chemical Company
Procedure: (§3) COX1 and COX2 enzyme activities were analyzed by using a human COX inhibitor screening assay kit (Cayman Chemical Company). After allowing the to-be-tested compound, human recombinant COX1 or COX2 enzyme and heme to stand at 37° C. for 15 minutes, AA (10 μM) was added to react for 2 minutes. Then, stannous chloride was added to reduce PGH2, the product of the above COX reaction, to PGF2α. Finally, the PGF2α level in the sample was measured by using enzyme immunoassay, and the inhibition percentage was calculated.

[6] = test system: TxB2 formation in human platelet suspensions; assay: Measurement of platelet TxB2 level after arachidonic acid; format: cell-based; settings: AA 100 μM; human platelet suspension
Procedure: (§4) FIGS. 6A and 6B show the effect of sofalcone and its derivatives on TxB2 and PGE2 productions induced by arachidonic acid (AA). […] After human platelet suspension was pretreated with dimethyl sulfoxide (DMSO) or sofalcone (SFC), sofalcone derivative 3, and sofalcone derivative 30, arachidonic acid (100 μM) was added to stimulate the productions of arachidonic acid metabolites TxB2 and PGE2. Data are presented as mean±standard error of the mean (n>5). Compared with the control group, *P<0.05, **P<0.01, ***P<0.001. ASA: Aspirin.
as §1
(§5) The compound to be tested was added to the platelet suspension and reacted for 3 minutes at 37° C. under stirring (1200 rpm), then arachidonic acid (AA) (100 μM) was added to react for 4 minutes, and finally EDTA (5 mM) was added to terminate the reaction. The above sample was centrifuged at 13,000 rpm for 1 minute at 4° C. and the supernatant was collected. The concentrations of TxB2 and PGE2 in the supernatant were measured respectively using enzyme immunoassay kits (TxB2 ELISA kit and PGE2 ELISA kit; Cayman Chemical Company).

[7] = test system: PGE2 formation in human platelet suspensions; assay: Measurement of platelet PGE2 level after arachidonic acid; format: cell-based; settings: AA 100 μM; human platelet suspension
Procedure: as §4, §1, §5

[8] = biological target: T2, TxA2 receptor (Homo sapiens, UniProt P21731); assay: Competitive antagonism of U46619-induced platelet aggregation (U46619 concentration-response curves); format: cell-based; settings: for mode of action at TxA2 receptor: concluded from parallel right shift of U46619 curves; for U46619 concentration-platelet aggregation response curve / maximum level of platelet aggregation: U46619 0.1-10 μM
T2 construct: The blood samples were centrifuged to obtain platelets, and residual plasma was removed by washing to prepare platelet suspension; endogenous in cells; host or cells: washed human platelets from healthy donors
T2 sequence (P21731 1-343): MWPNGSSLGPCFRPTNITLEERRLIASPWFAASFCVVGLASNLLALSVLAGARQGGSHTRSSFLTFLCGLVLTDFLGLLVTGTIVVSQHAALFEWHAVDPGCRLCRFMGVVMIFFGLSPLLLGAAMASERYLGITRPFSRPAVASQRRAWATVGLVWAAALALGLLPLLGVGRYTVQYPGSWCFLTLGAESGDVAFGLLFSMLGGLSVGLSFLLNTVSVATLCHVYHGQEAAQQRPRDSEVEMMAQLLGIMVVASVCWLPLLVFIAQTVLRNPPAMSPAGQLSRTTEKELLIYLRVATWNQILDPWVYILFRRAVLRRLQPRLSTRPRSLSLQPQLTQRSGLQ
Procedure: After human platelet suspension was pretreated with dimethyl sulfoxide (DMSO) or sofalcone (SFC) (FIG. 5A), sofalcone derivative 3 (FIG. 5B), and sofalcone derivative 30 (FIG. 5C), different concentrations of U46619 (0.1-10 μM) were added to stimulate platelet aggregation reaction. Data are presented as mean±standard error of the mean (n=5).
as §1, §2
After pretreating human platelet suspensions with dimethylsulfoxide (DMSO), sofalcone (20 μM and 50 μM), and sofalcone derivatives 3 or 30 (0.2 μM and 0.5 μM, respectively), different concentrations of U46619 (0.1-10 μM) were added to stimulate platelet aggregation.

[9] = biological target: T3, human recombinant COX2 (Homo sapiens, UniProt P35354); assay: COX2 enzyme activity assay; format: biochemical
T3 construct: purchased Cayman Chemical Company
T3 sequence (P35354 18-604): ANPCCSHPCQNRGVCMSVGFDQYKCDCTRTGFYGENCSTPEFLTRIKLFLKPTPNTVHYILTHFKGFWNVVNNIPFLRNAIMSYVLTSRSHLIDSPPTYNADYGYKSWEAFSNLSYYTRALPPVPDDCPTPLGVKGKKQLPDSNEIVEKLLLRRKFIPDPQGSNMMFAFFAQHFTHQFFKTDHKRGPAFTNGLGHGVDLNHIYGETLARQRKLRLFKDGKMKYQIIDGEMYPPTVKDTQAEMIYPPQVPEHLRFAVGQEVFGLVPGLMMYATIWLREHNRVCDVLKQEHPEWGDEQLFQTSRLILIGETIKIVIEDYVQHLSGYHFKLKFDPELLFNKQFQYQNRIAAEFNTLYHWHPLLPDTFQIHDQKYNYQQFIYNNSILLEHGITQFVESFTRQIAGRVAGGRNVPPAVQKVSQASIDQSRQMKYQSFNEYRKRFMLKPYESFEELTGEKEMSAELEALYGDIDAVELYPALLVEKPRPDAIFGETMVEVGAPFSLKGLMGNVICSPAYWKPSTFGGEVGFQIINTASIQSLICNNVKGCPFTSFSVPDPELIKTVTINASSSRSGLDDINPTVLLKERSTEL
Procedure: as §3

T1 sequence (P23219 24-599): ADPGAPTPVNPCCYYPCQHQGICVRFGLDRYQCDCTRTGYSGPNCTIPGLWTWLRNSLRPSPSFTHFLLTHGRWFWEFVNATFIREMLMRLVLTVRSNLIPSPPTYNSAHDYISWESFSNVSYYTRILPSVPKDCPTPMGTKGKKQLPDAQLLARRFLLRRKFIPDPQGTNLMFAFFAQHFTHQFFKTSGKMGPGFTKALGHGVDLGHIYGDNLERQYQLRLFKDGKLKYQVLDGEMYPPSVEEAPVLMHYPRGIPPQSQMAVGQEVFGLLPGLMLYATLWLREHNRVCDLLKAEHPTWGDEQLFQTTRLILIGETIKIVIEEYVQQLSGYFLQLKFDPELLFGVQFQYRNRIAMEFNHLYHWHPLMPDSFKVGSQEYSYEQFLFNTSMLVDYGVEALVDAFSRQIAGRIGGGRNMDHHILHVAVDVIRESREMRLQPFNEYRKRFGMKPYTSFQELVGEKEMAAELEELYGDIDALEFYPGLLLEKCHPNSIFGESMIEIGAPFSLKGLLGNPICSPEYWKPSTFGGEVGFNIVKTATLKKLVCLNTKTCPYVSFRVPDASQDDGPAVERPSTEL

Compound	IC50 [1]	IC50 [3]	formation of TxB2 induced by arachidonic acid [6]	formation of PGE2 induced by arachidonic acid [7]	mode of action at TxA2 receptor [8]	further results
CC(=O)Oc1ccccc1C(=O)O [Aspirin, reference compound]	79 µM	> 200 µM	inhibited	inhibited		carotid artery occlusion time ([2]; single dose 25 mg/kg): prolonged; tail bleeding time ([4]; mice, oral gavage, single dose 25 mg/kg): significantly prolonged; inhibition at 200 µM ([5]; read-out: COX1 (Inhibition rate %)): 26%
CC(C)=CCOc1ccc(/C=C/C(=O)c2ccc(OCC=C(C)C)cc2OCCCC(=O)[O-])cc1.[K+] [Compound 17]	0.32 µM	0.04 µM				carotid artery occlusion time ([2]; single dose 10 mg/kg): significantly prolonged; carotid artery occlusion time ([2]; single dose 25 mg/kg): significantly prolonged; tail bleeding time ([4]; mouse, in vivo, po, 10 mg/kg): did not affect; tail bleeding time ([4]; mouse, in vivo, po, 25 mg/kg): did not affect
CC(C)=CCOc1ccc(/C=C/C(=O)c2ccc(OCC=C(C)C)cc2OCCCC(=O)O)cc1 [Compound 30]	0.38 µM	0.04 µM	did not inhibit	did not inhibit	competitively antagonize	U46619 concentration-platelet aggregation response curve ([8]; pretreatment 0.2 μM and 0.5 μM): shifted parallelly to the right; maximum level of platelet aggregation ([8]; pretreatment 0.2 μM and 0.5 μM): not significantly affected
CC(C)=CCOc1ccc(/C=C/C(=O)c2ccc(OCC=C(C)C)cc2OCC(=O)O)cc1 [SFC, sofalcone]	49 µM	16 µM	did not inhibit	did not inhibit	competitively antagonize	carotid artery occlusion time ([2]; 50 mg/kg per day for 4 days): significantly prolonged; U46619 concentration-platelet aggregation response curve ([8]; pretreatment 20 μM and 50 μM): shifted parallelly to the right; maximum level of platelet aggregation ([8]; pretreatment 20 μM and 50 μM): not significantly affected; tail bleeding time ([4]; mice, oral gavage, 50 mg/kg per day for 4 days): did not affect
O=C(O)CCCOc1ccccc1C(=O)/C=C/c1ccc(F)cc1 [Compound 3]	0.03 µM	0.07 µM	inhibited	inhibited	competitively antagonize	U46619 concentration-platelet aggregation response curve ([8]; pretreatment 0.2 μM and 0.5 μM): shifted parallelly to the right; maximum level of platelet aggregation ([8]; pretreatment 0.2 μM and 0.5 μM): not significantly affected; COX1 (Inhibition rate %) ([5]; 1 μM): 19.1%; COX1 (Inhibition rate %) ([5]; 10 μM): 61.6%; COX1 (Inhibition rate %) ([5]; 100 μM): 89.8%; COX1 versus COX2 inhibitory effect ([5]; human recombinant COX1 and COX2, 1-100 μM): better inhibitory effect on COX1; COX2 (Inhibition rate %) ([9]; 10 μM): 26.7%; COX2 (Inhibition rate %) ([9]; 100 μM): 48.6%
CC(C)=CCOc1ccc(C=CC(=O)c2ccccc2OCCCCC(=O)O)cc1 [Compound 102]	3.14 µM	2.42 µM				
COC(=O)COc1cc(OC(C)=O)ccc1C(=O)C=Cc1ccc(OC(C)=O)cc1 [Compound 81]	23.8 µM	28 µM				
CCOC(=O)COc1ccccc1C(=O)C=Cc1ccc(Br)s1 [Compound 67]	5.35 µM	> 100 µM				
COC(=O)COc1cc(OCC=C(C)C)ccc1C(=O)C=Cc1ccc(OCC=C(C)C)cc1 [Compound 68]	> 100 µM	> 100 µM				
CC(C)=CCCC(C)=CCOc1ccc(C(=O)C=Cc2ccccc2)c(OCCCC(=O)O)c1 [Compound 7]	4.03 µM	0.49 µM				
